Experiments:
[1] = system: integrin αVβ3 surface expression in C4-2B prostate cancer cells; assay: αVβ3 protein stimulation and verification (immunocytochemistry); assay type: cell-based, human; conditions: C4-2B cells, 200 ng/mL CXCL12, after first hour, constant for 12 hours
Description: αVβ3 Protein Stimulation and Verification. C4-2B cells were grown on glass coverslips in a six-well dish and then stimulated to express αVβ3 by treatment with 200 ng/mL of recombinant human CXCL12 (R&D Systems, Minneapolis, Minn.) for 1, 6, or 12 hours at 37° C. After cells were stimulated they were rinsed with PBS, fixed with 4% formaldehyde (Affymetrix) for 10 min at room temperature, washed twice with PBS, and blocked for 1 hour with 1% BSA in PBS. Next cells were incubated for 4 hours with a 1:100 dilution of anti-integrin αVβ3 antibody, clone LM609 (Millipore). Incubation was followed by three washes with PBS, and then incubated for 45 minutes with a 1:200 dilution of the goat anti-mouse IgG (H+L) secondary antibody, Alexa Fluor 488 conjugate (Life Technologies). Cells were washed twice more and mounted on slides with Prolong Gold antifade reagent with DAPI (Invitrogen). Fluorescent images were taken with Olympus AX70 Florescent Microscope.

[2] = target: ATP-dependent drug efflux pump glycoprotein (P-gp) (Homo sapiens, UniProt P08183); conditions: cited from earlier work
Chain of ATP-dependent drug efflux pump glycoprotein (P-gp) (P08183 whole entry): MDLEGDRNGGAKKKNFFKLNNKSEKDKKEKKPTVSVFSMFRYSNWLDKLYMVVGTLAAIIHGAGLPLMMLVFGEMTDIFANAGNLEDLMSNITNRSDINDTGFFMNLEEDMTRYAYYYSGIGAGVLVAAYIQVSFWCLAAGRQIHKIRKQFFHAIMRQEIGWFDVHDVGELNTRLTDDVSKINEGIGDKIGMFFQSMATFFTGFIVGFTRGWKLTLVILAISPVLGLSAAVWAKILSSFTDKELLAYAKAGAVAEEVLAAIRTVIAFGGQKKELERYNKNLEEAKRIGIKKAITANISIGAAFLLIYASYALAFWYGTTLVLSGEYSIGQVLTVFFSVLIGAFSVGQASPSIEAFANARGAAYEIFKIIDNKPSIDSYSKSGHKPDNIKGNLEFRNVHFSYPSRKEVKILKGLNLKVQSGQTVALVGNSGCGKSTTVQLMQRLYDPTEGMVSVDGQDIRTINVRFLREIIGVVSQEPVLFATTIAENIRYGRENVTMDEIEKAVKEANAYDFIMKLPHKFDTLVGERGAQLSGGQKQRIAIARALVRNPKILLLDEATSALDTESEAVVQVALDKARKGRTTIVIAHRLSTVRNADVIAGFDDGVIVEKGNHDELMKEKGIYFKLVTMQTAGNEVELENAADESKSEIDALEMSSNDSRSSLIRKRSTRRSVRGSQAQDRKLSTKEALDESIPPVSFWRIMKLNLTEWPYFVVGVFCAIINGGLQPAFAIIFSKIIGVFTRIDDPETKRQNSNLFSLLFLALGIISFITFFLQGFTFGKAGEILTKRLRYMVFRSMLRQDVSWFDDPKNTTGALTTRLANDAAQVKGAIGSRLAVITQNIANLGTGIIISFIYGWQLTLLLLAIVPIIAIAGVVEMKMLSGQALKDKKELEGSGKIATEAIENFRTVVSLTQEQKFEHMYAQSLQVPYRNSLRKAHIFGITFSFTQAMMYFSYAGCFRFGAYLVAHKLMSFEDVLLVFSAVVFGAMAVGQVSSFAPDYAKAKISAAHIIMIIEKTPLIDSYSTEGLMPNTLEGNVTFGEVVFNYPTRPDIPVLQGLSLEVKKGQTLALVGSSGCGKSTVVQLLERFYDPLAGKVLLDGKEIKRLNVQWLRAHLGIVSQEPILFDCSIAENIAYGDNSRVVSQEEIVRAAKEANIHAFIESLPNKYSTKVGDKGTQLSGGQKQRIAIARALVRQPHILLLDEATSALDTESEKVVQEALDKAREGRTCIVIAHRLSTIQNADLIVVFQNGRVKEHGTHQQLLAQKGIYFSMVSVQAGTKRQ

[3] = In vivo bone retention (intraosseous injection); conditions: injected into mouse tibia, live animal imaging up to 72 hours, NIR dye
Description: In vivo bone retention. […] Animals were imaged initially and at time points: 1 hour, 24 hours, 48 hours, and 72 hours to assess for NIR signal on IVIS animal imager. Fluorescent signal was quantified at each time and compared to the signal for the initial time point of each mouse to give the percentage of retained nanoparticle in the bone. Additionally, half-life of nanoparticle signal in the bone was calculated with the following equation: N(t)=N0(½)^(t/t1/2).

C-X-C motif chemokine ligand 12 [CXCL12]
increase in expression level of αVβ3 [1]: approximately 2 fold

CO[C@H]1C(=O)[C@]2(C)[C@@H](OC)C[C@H]3OC[C@@]3(OC(C)=O)[C@H]2[C@H](OC(=O)c2ccccc2)[C@]2(O)C[C@H](OC(=O)[C@H](O)[C@@H](NC(=O)OC(C)(C)C)c3ccccc3)C(C)=C1C2(C)C [Cabazitaxel]
substrate affinity for P-gp [2]: lower substrate affinity

CCCN1C(=CC=C2CCCC(C=CC3=[N+](CCC)c4ccccc4C3(C)C)=C2Cl)C(C)(C)c2ccccc21.[I-] [dye, IR-780 dye]
retention and half-life in the bone [3]: equivalent regarding retention in the bone
